# Measured values taken from patent publication US7772241B2, “Variolin derivatives and their use as antitumor agents” (Pharma Mar S.A., priority 2001, dated 2010).
# Where two headings read alike, the source gives them in different places.
# How the values were obtained:
# PANC-1 = experiment: Inhibition of cells growth by colorimetric (SRB) assay, PANC-1
# Summary of the method: (§1)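 Human tumour cells seeded at 5×10^3/well in RPMI 1640 10% FBS, attached 18 h, then exposed 48 h to samples at 10 to 10^−8 μg/ml in DMSO/EtOH/PBS (0.5:0.5:99). Growth read by SRB staining after TCA fixation, OD 490 nm, triplicate wells; GI, TGI and LC derived.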
# DU-145 = experiment: Inhibition of cells growth by colorimetric (SRB) assay, DU-145; settings: for CC50: read-out: LC50 DU-145
# Summary of the method: as §1
# SK-OV-3 = experiment: Inhibition of cells growth by colorimetric (SRB) assay, SK-OV-3; settings: SRB assay, 48 hours exposure; for GI50: read-out: GI50 SKOV-3
# Summary of the method: as §1
# HT-29 = experiment: Inhibition of cells growth by colorimetric (SRB) assay, HT-29
# Summary of the method: as §1
# SK-MEL-28 = experiment: Inhibition of cells growth by colorimetric (SRB) assay, SK-MEL-28
# Summary of the method: as §1
# IGROV-1 = experiment: Inhibition of cells growth by colorimetric (SRB) assay, IGROV-1
# Summary of the method: as §1
# LNCaP = experiment: Inhibition of cells growth by colorimetric (SRB) assay, LNCaP; settings: SRB assay, 48 hours exposure; for GI50: read-out: GI50 LN-caP; for CC50: read-out: LC50 LN-caP
# Summary of the method: as §1
# SK-BR-3 = experiment: Inhibition of cells growth by colorimetric (SRB) assay, SK-BR-3
# Summary of the method: as §1
# LoVo-Dox = experiment: Inhibition of cells growth by colorimetric (SRB) assay, LoVo-Dox
# Summary of the method: as §1
# [1] = Inhibition of cells growth by colorimetric (SRB) assay, HMEC1; settings: human, HMEC1 cells, LC50 H-MEC-1, SRB assay, 48 hours exposure
# HMEC1 = experiment: as above; settings: for GI50: Homo sapiens, HMEC-1, 48 h, read-out: GI50 H-MEC-1, SRB assay, 48 hours exposure; for TGI H-MEC-1: SRB assay, 48 hours exposure, in M (unit assumed)
# K-562 = experiment: Inhibition of cells growth by colorimetric (SRB) assay, K-562; settings: SRB assay, 48 hours exposure; for GI50: read-out: GI50 K-562; for CC50: read-out: LC50 K-562
# Summary of the method: as §1
# IGROV-ET = experiment: Inhibition of cells growth by colorimetric (SRB) assay, IGROV-ET; settings: for GI50: read-out: GI50 IGROV-ET
# Summary of the method: as §1
# LoVo = experiment: Inhibition of cells growth by colorimetric (SRB) assay, LoVo
# Summary of the method: as §1
# A-549 = experiment: Inhibition of cells growth by colorimetric (SRB) assay, A-549
# Summary of the method: as §1
smiles,measurement,setting,value
CCOc1nccc(-c2c3cccnc3n3c(N)nccc23)n1.Cl [Compound 82],GI50,"PANC-1; Homo sapiens, PANC-1, 48 h, read-out: GI50 PANC-1, SRB assay, 48 hours exposure",1.03 µM
same,CC50,"PANC-1; Homo sapiens, PANC-1, 48 h, read-out: LC50 PANC-1, SRB assay, 48 hours exposure",29.2 µM
same,TGI PANC-1,"PANC-1; SRB assay, 48 hours exposure",6.77E−06
same,GI50,"DU-145; Homo sapiens, DU-145, 48 h, read-out: GI50 DU-145, SRB assay, 48 hours exposure",0.715 µM
same,TGI DU-145,"DU-145; SRB assay, 48 hours exposure",1.51E−06
same,CC50,"DU-145; SRB assay, 48 hours exposure",2.92 µM
same,TGI SKOV-3,SK-OV-3,2.91E−06
same,GI50,SK-OV-3,0.992 µM
same,GI50,"HT-29; Homo sapiens, HT-29, 48 h, read-out: GI50 HT-29, SRB assay, 48 hours exposure",0.712 µM
same,TGI HT-29,"HT-29; SRB assay, 48 hours exposure",2.92E−06
same,GI50,"SK-MEL-28; Homo sapiens, SK-MEL-28, 48 h, read-out: GI50 MEL-28, SRB assay, 48 hours exposure",0.365 µM
same,CC50,"SK-MEL-28; Homo sapiens, SK-MEL-28, 48 h, read-out: LC50 MEL-28, SRB assay, 48 hours exposure",1.73 µM
same,TGI MEL-28,"SK-MEL-28; SRB assay, 48 hours exposure",7.93E−07
same,GI50,"IGROV-1; Homo sapiens, IGROV-1, 48 h, read-out: GI50 IGROV, SRB assay, 48 hours exposure",0.971 µM
same,CC50,"IGROV-1; Homo sapiens, IGROV-1, 48 h, read-out: LC50 IGROV, SRB assay, 48 hours exposure",29.2 µM
same,TGI IGROV,"IGROV-1; SRB assay, 48 hours exposure",1.76E−06
same,TGI LN-caP,LNCaP,1.57E−06
same,GI50,LNCaP,0.887 µM
same,CC50,LNCaP,2.28 µM
same,GI50,"SK-BR-3; Homo sapiens, SK-BR-3, 48 h, read-out: GI50 SK-BR-3, SRB assay, 48 hours exposure",0.56 µM
same,CC50,"SK-BR-3; Homo sapiens, SK-BR-3, 48 h, read-out: LC50 SK-BR-3, SRB assay, 48 hours exposure",2.26 µM
same,TGI SK-BR-3,"SK-BR-3; SRB assay, 48 hours exposure",1.12E−06
same,GI50,"LoVo-Dox; Homo sapiens, 48 h, read-out: GI50 LOVO-DOX, SRB assay, 48 hours exposure",0.7 µM
same,CC50,"LoVo-Dox; Homo sapiens, 48 h, read-out: LC50 LOVO-DOX, SRB assay, 48 hours exposure",12.1 µM
same,TGI LOVO-DOX,"LoVo-Dox; SRB assay, 48 hours exposure",2.72E−06
same,CC50 at 48 h,[1],1.55 µM
same,GI50,HMEC1,0.341 µM
same,TGI H-MEC-1,HMEC1,7.29E−07
same,TGI K-562,K-562,7.32E−07
same,GI50,K-562,0.531 µM
same,CC50,K-562,1.01 µM
same,CC50,"IGROV-ET; Homo sapiens, 48 h, read-out: LC50 IGROV-ET, SRB assay, 48 hours exposure",29.2 µM
same,TGI IGROV-ET,"IGROV-ET; SRB assay, 48 hours exposure",2.32E−07
same,GI50,"IGROV-ET; SRB assay, 48 hours exposure",0.089 µM
same,GI50,"LoVo; Homo sapiens, LoVo, 48 h, read-out: GI50 LOVO, SRB assay, 48 hours exposure",0.665 µM
same,CC50,"LoVo; Homo sapiens, LoVo, 48 h, read-out: LC50 LOVO, SRB assay, 48 hours exposure",29.2 µM
same,TGI LOVO,"LoVo; SRB assay, 48 hours exposure",2.15E−06
same,GI50,"A-549; Homo sapiens, A549, 48 h, read-out: GI50 A-549, SRB assay, 48 hours exposure",29.2 µM
same,CC50,"A-549; Homo sapiens, A549, 48 h, read-out: LC50 A-549, SRB assay, 48 hours exposure",29.2 µM
same,TGI A-549,"A-549; SRB assay, 48 hours exposure",2.92E−05
Cl.Nc1nccc2c(-c3ccncn3)c3c(O)ccnc3n12 [Compound 101],TGI PANC-1,"PANC-1; SRB assay, 48 hours exposure",4.88E−06
same,GI50,"PANC-1; read-out: GI50 PANC-1, SRB assay, 48 hours exposure",0.149 µM
same,CC50,"PANC-1; read-out: LC50 PANC-1, SRB assay, 48 hours exposure",≥ 33.9 µM
same,TGI DU-145,"DU-145; SRB assay, 48 hours exposure",1.80E−06
same,GI50,"DU-145; read-out: GI50 DU-145, SRB assay, 48 hours exposure",0.118 µM
same,CC50,"DU-145; SRB assay, 48 hours exposure",≥ 30.3 µM
same,TGI SKOV-3,SK-OV-3,1.41E−05
same,GI50,SK-OV-3,4.44 µM
same,CC50,SK-OV-3; read-out: LC50 SKOV-3,≥ 33.9 µM
same,TGI HT-29,"HT-29; SRB assay, 48 hours exposure",2.35E−05
same,GI50,"HT-29; read-out: GI50 HT-29, SRB assay, 48 hours exposure",8.87 µM
same,CC50,"HT-29; read-out: LC50 HT-29, SRB assay, 48 hours exposure",≥ 33.9 µM
same,TGI MEL-28,"SK-MEL-28; SRB assay, 48 hours exposure",1.07E−05
same,GI50,"SK-MEL-28; read-out: GI50 MEL-28, SRB assay, 48 hours exposure",5.22 µM
same,CC50,"SK-MEL-28; read-out: LC50 MEL-28, SRB assay, 48 hours exposure",21.9 µM
same,TGI IGROV,"IGROV-1; SRB assay, 48 hours exposure",1.06E−05
same,GI50,"IGROV-1; read-out: GI50 IGROV, SRB assay, 48 hours exposure",3.79 µM
same,CC50,"IGROV-1; read-out: LC50 IGROV, SRB assay, 48 hours exposure",29.6 µM
same,TGI LN-caP,LNCaP,1.32E−07
same,GI50,LNCaP,0.0224 µM
same,CC50,LNCaP,4.74 µM
same,TGI SK-BR-3,"SK-BR-3; SRB assay, 48 hours exposure",8.77E−07
same,GI50,"SK-BR-3; read-out: GI50 SK-BR-3, SRB assay, 48 hours exposure",0.128 µM
same,CC50,"SK-BR-3; read-out: LC50 SK-BR-3, SRB assay, 48 hours exposure",10.2 µM
same,TGI LOVO-DOX,"LoVo-Dox; SRB assay, 48 hours exposure",1.59E−05
same,GI50,"LoVo-Dox; read-out: GI50 LOVO-DOX, SRB assay, 48 hours exposure",2.35 µM
same,CC50,"LoVo-Dox; read-out: LC50 LOVO-DOX, SRB assay, 48 hours exposure",≥ 33.9 µM
same,CC50 at 48 h,[1],0.0444 µM
same,GI50,HMEC1,0.00677 µM
same,TGI H-MEC-1,HMEC1,1.57E−08
same,TGI K-562,K-562,1.79E−05
same,GI50,K-562,5.55 µM
same,CC50,K-562,≥ 33.9 µM
same,TGI IGROV-ET,"IGROV-ET; SRB assay, 48 hours exposure",2.08E−05
same,GI50,"IGROV-ET; SRB assay, 48 hours exposure",6.6 µM
same,CC50,"IGROV-ET; read-out: LC50 IGROV-ET, SRB assay, 48 hours exposure",≥ 33.9 µM
same,TGI LOVO,"LoVo; SRB assay, 48 hours exposure",1.41E−05
same,GI50,"LoVo; read-out: GI50 LOVO, SRB assay, 48 hours exposure",3.52 µM
same,CC50,"LoVo; read-out: LC50 LOVO, SRB assay, 48 hours exposure",≥ 33.9 µM
same,TGI A-549,"A-549; SRB assay, 48 hours exposure",1.09E−05
same,GI50,"A-549; read-out: GI50 A-549, SRB assay, 48 hours exposure",2.39 µM
same,CC50,"A-549; read-out: LC50 A-549, SRB assay, 48 hours exposure",≥ 33.9 µM
